Source: the METLIN SMRT retention time set (Domingo-Almenara et al. 2019)

Experiment: gradient 5% acetonitrile 3 min, to 50% in 2 min, to 85% in 15 min, held 3 min, 100 µL/min
Conditions: column: Zorbax Extend-C18 2.1 x 50 mm; eluents: water / acetonitrile, 0.1% formic acid
How it was run: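 Each retention time is based on an adduct peak selected computationally and verified by manual inspection. Measurements used HPLC–quadrupole time-of-flight mass spectrometry in positive and negative ionization mode on mixtures of ~100 pure standards. Chromatography ran on a Zorbax Extend-C18 column (2.1 × 50 mm, 1.8 μm) at 100 μL/min with water and acetonitrile, each containing 0.1% formic acid, and dead and dwell volumes of 40 μL and 900 μL.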

Structure (SMILES)	RP-LC retention time [s]
Cc1ccc(NC(=O)NC2CCN(c3ccc(C)c(C)c3)C2=O)cc1 (stereo not given)	931
CC(C)NC(=O)N1CCCN(Cc2cccs2)CC1	564
Cc1ccn2cc(C(=O)NCc3ccccc3)nc2c1	636
COc1ccc(-c2c(C)noc2NC(C)=O)cc1S(=O)(=O)N1CCc2ccccc2C1	807
CCOc1ccc(-c2ccc(=O)n(CCCC(=O)Nc3ccccc3SC)n2)cc1	853
CCSc1nnc(-c2nn(C)c3c2CN(C(=O)c2cccc(F)c2)CC3)n1C	744
CCOc1ccc(-c2[nH]nc3nc(-c4ccc(OC)cc4)cc(C(=O)O)c23)cc1	654
Cc1cccc(NC(=O)Cn2c(C)nc3c(sc4nc(-c5ccccc5)ccc43)c2=O)c1C	1170
COc1cc(-c2noc(C3CC(=O)N(c4cccc(Cl)c4)C3)n2)cc(OC)c1OC (stereo not given)	1010
COc1cccc(C2=NN(C(C)=O)C(c3ccc(Br)cc3)O2)c1OC(C)=O (stereo not given)	1040
Cc1csc(-c2cc(S(=O)(=O)N3CCC(Cc4ccccc4)CC3)c(C)n2C)n1	1300
CCc1cc(C(=O)Nc2ccc(C#N)cc2)nc2cc(-c3ccco3)nn12	1130
Cc1cccc(NC(=O)Cn2c(C(C)C)nc3c(c2=O)CCN(Cc2ccccc2)C3)c1	728
CCCC(=O)Nc1cnc(-c2ccccc2)nc1	815
O=C(CSc1nnc(NC(=O)c2c(F)cccc2Cl)s1)c1ccccc1	888
Cc1ccn2cc(-c3ccc(NC(=O)c4ccc(Cl)cc4)cc3)nc2n1	676
CCCc1ccc(S(=O)(=O)N2CCCC2c2nc(-c3cccc(C)c3)no2)cc1 (stereo not given)	1330
O=C(NCc1cccs1)C(=O)NCC1(c2ccc(F)cc2)CC1	727
CCCN1C(=O)COc2ccc(-c3csc(NC(=O)c4ccc(Br)cc4)n3)cc21	1160
CCOCCCNC(=O)N1CCOc2ccc(CN(CC)CC)cc2C1	591
CS(=O)(=O)N1CCCC(C(=O)Nc2nc(-c3nc4ccccc4s3)cs2)C1 (stereo not given)	800
COCCN1CCn2cc(S(=O)(=O)Nc3ccc(Cl)cc3F)cc2C1=O	734
CCCNC(=O)Cn1c(CC)nc2ccccc21	578
CCc1noc(NC(C)=O)c1-c1ccc(OC)c(S(=O)(=O)Nc2ccc(OC)c(Cl)c2)c1	775
CCc1ccc(C(=O)NCCc2nc3cccnc3n2CC)cc1	694
CCn1ccc2cc(S(=O)(=O)N3CCCC(C(=O)NCCCOC)C3)ccc21 (stereo not given)	804
O=C1c2ccccc2C(=O)c2c1cccc2N1CCCC(CO)C1 (stereo not given)	635
CC(C)c1cc(C(=O)Nc2ccc(Cl)cc2)no1	1080

Structure (SMILES)	RP-LC retention time [s]
COC(=O)CSc1ccc(NC(C)=O)nn1	577
CN1C(=O)c2cccn2CC1CNC(=O)c1n[nH]c(=O)c2ccccc12 (stereo not given)	764
CCc1nn2c(CNS(=O)(=O)c3ccccc3F)c(-c3ccccc3)nc2s1	907
O=C(Nc1ccccc1)C12CC1/C(=N\O)c1ccccc1O2 (stereo not given)	825
COc1ccc(Cl)cc1NC(=O)c1c(O)c2cccnc2n(-c2ccc(F)cc2)c1=O	1280
Cc1cccc(S(=O)(=O)N2CCCC(OCc3nc(C)no3)C2)c1 (stereo not given)	877
CCC(=C(c1ccccc1)c1ccc(OCCN(C)C)cc1)c1ccccc1	1010
Cc1cc2c(cc1S(=O)(=O)N1CCCC1C(=O)NCc1ccc3c(c1)OCO3)OC(C)C(=O)N2 (stereo not given)	755
CCn1cc(CCNC(=O)Nc2cccc(C(C)=O)c2)c2cccnc21	665
COc1cc(OC)cc(-c2nc(-c3cn(-c4ccc(F)cc4)nn3)no2)c1	809
O=C1NCCCCCN(C(=O)Cn2c(=O)oc3ccccc32)[C@@H]2C[C@@H](C(=O)N3CCc4ccccc4C3)C[C@H]12	864
CCC(=O)Nc1ccc(CCc2nc3ccc(C(=O)NCCCOC)cc3[nH]2)cc1	596
NC(=O)CSc1nnc(CCc2nc3ccccc3s2)o1	633
COc1ccccc1-c1nnc(-c2cc(S(=O)(=O)N3CCOCC3)ccc2Cl)o1	902
CCn1cc(C(=O)Nc2ccc(C)cc2)c2cccnc21	859
Cn1cc(CN2CCN(C(=O)C3CCN(S(=O)(=O)N4CCCC4)CC3)CC2)c2ccccc21	655
O=C(Cc1nnc(-c2cccc(F)c2)o1)Nc1ccccc1	808
CCn1cc(C(=O)Nc2cccc(C)c2C)c2cccnc21	854
Cc1nc(CSc2nc3cc([N+](=O)[O-])ccc3s2)cs1	916
Cc1cc(C(=O)N2C[C@@H](C)[C@H](c3nc(-c4ccncc4)no3)C2)n[nH]1	619
CCOc1ccccc1C1CC(=O)Nc2c(S(=O)(=O)c3ccccc3)csc21 (stereo not given)	1010
CC(=O)Nc1ccc(NC(=O)c2cccc(N3C(=O)NC4CC3(C)Oc3ccccc34)c2)cc1 (stereo not given)	702
CCCn1ccc2sc(C)c(C(=O)NCc3cccc(C)c3)c2c1=O	948
CC(=O)Nc1ccc2c(c1)N(C(=O)c1cccs1)CCC2	695
O=C(N[C@H]1C[C@@H]2C[C@H]1CN2C(=O)c1ccc2c(c1)OCO2)c1ccccc1	700
Cc1ccc(C2C=CC(C#N)=CN2Cc2ccccc2)cc1 (stereo not given)	1210
O=C(c1cccc(Cl)c1)N1CCC2(C1)NC(=O)N(Cc1ccc(F)cc1)C2=O (stereo not given)	820

Continued, values first:

RP-LC retention time [s]	Structure (SMILES)
637	O=C(Cn1cnc2nc(N3CCC(C(=O)NC4CC4)CC3)sc2c1=O)Nc1ccc2c(c1)OCO2
654	O=C(NCC1CCCO1)c1nc(-c2ccnc(N3CCCCC3)c2)no1 (stereo not given)
714	Cn1c(C2CCN(C(=O)Nc3cccc(Br)c3)CC2)cc(=O)n2nccc12
709	Cc1noc(-c2nn(C)c3c2CN(C(=O)Nc2ccccc2C(F)(F)F)CC3)n1
714	COc1cccc(-c2cc3n(n2)CCCN(C(=O)c2ccsc2)C3)c1
918	COc1ccccc1NC(=O)C1CCN(S(=O)(=O)c2cc(-c3noc(C)n3)cs2)CC1
713	COc1ncccc1CNC(=O)NC1CCCCC1
885	CCNC(=O)N1CCN(c2ccc(-c3noc(C4CC(=O)N(c5ccc(C)c(C)c5)C4)n3)cc2)CC1 (stereo not given)
758	O=C(NCCC1CCN(C(=O)Nc2cc(F)ccc2F)CC1)c1ccco1
945	CCS(=O)(=O)N1CCCc2cc(C(=O)NCc3ccco3)ccc21
730	O=C(NC1CC1)c1nnc(-c2ccc(S(=O)(=O)N3CCCC3)cc2)o1
845	CCn1c(=O)sc2cc(S(=O)(=O)N3CCC(C(=O)N4CCCCC4)CC3)ccc21
691	COc1ccc(C2Cn3cnc(C(=O)N4CCC(C(=O)NCCc5cccs5)CC4)c3CO2)cc1 (stereo not given)
819	CC1CCN(c2cc(-n3cnc(C(=O)NCC4CCCO4)c3)ncn2)CC1 (stereo not given)
1020	CCOc1ccc(CC(=O)N2CCCn3nc(-c4ccc(Cl)cc4)cc3C2)cc1
879	Cc1cc(Cl)ccc1NC(=O)c1ncn2c1C(=O)N(C1CC1)C(C)(C(=O)NC1CCCC1)C2 (stereo not given)
1110	CCn1cc(-c2ccc(OC)cc2)cc1C(=O)N1CCC(C)CC1
945	Cc1nc(-c2ccc3c(c2)n(CC(=O)NC2CCCCCCC2)c(=O)n3C(C)C)no1

RP-LC retention time [s]	Structure (SMILES)
874	Cc1ccc(N2CC(c3nc(-c4ccc(CNC(=O)C5CC5)s4)no3)CC2=O)cc1C (stereo not given)
896	CCCN1C(=O)COc2ccc(-c3csc(NC(=O)C4CCCO4)n3)cc21 (stereo not given)
1040	O=C(NC1CCCCCC1)c1cn(-c2cc(-c3nc(C4CC4)no3)ccn2)cn1
1090	Cc1ccc(Cn2c(=O)c(N3CCCC(C(=O)NCCc4ccco4)C3)nc3ccccc32)cc1 (stereo not given)
674	COc1ccc(-c2nc(N3CCOCC3)c3sc(CN(C)c4ncc(C(=O)NO)cn4)cc3n2)cn1
651	Cc1ccc(Nc2cc(-n3ccnc3)ncn2)cc1
878	Cn1cc2c3c(cccc31)CN(C(=O)C1CCC1)CC2
740	CN1CC2(CCCC2)N(C(=O)COc2ccc(F)cc2)CC1=O
679	CCn1nc(C)c(-c2cc(C(=O)NCC3Cn4cccc4C(=O)N3C)no2)c1C (stereo not given)
680	Cc1ccc(NC(=O)N2CCCC(Cn3cnc4cccnc43)C2)c(C)c1 (stereo not given)
535	COc1cccc(NC(=O)N2CCC(c3nc4ccncc4n3C(C)C)C2)c1 (stereo not given)
616	Cc1nc(-c2csc(S(=O)(=O)N3CCC(C(=O)N4CCN(C)CC4)CC3)c2)no1
785	O=C(NC1CC1)C1CCCN(c2ccc(Sc3ccc(Br)cc3)nn2)C1 (stereo not given)
829	COc1cc(OC)cc(C(=O)Nc2ccc(N3CCN(C4CCCC4)C3=O)nc2)c1
839	Cc1cc(C)n(-c2ccnc(N3CCC(C(=O)NCCc4ccccc4)CC3)n2)n1
680	CCCNC(=O)N(C1CCOCC1)C1CCN(C(=O)c2ccsc2)CC1
750	Cn1cc(C(=O)N2CCCC2Cc2noc(C3CCCC3)n2)cn1 (stereo not given)
